The results in this text go back to patent US20050197350A1, “Novel quinoline, tetrahydroquinazoline, and pyrimidine derivatives and methods of treatment related to the use thereof” (TAISHO PHARMACEUTICAL CO., LTD., priority 2003, published 2005).

This assay has as its system MCH receptors. As to the kind of experiment: MCH receptor activity class (method not given).
Where [1] appears, read: class by percent of control at 10^-7 M or IC50.
[2] abbreviates: MCH receptor, class by percent of control at 10^-7 M or IC50.
Setting [3] is: class by percent of control at 10^−7 M or IC50.
Setting [4] is: activity class per percent of control at 10^-7 M or IC50.
Setting [5] is: MCH receptor activity class 1-3 (percent of control at 10^-7 M or IC50).

On to `CN(C)c1cc(N[C@H]2CC[C@@H](NC(=O)Cc3ccccc3I)CC2)nc2ccccc12` [compound 681, N-(cis-4-{[4-(dimethylamino)quinolin-2-yl]amino}cyclohexyl)-2-(2-iodophenyl)acetamide], for which the class under setting [1] is 2 (Class 2: The value of percent of control at 10^−7 M was from 40% to 60% or the value of IC′50 was from 50 nM to 200 nM.).
Turning to `CN(C)c1cc(N[C@H]2CC[C@@H](NC(=O)C3=Cc4cc(Cl)ccc4OC3)CC2)nc2ccccc12` [compound 143], the class under setting [2] is reported as 3 (Class 3 The value of percent of control at 10^−7 M was more than 60% or the value of IC50 was more than 200 nM.).
Turning to `COc1cc(OC)cc(C(=O)NC[C@H]2CC[C@@H](Nc3ncc(C)c(N(C)C)n3)CC2)c1` [compound 2694, N-[(cis-4-{[4-(dimethylamino)-5-methylpyrimidin-2-yl]amino}cyclohexyl)methyl]-3,5-dimethoxybenzamide], the class under setting [3] was 1 (Class 1: The value of percent of control at 10^−7 M was less than 40% or the value of IC50 was less than 50 nM.).
Turning to `Cc1cc(Cl)cc(Cl)c1NC(=S)N[C@H]1CC[C@@H](Nc2nc3c(c(N(C)C)n2)CCCC3)CC1` [compound 1781, N-(2,4-dichloro-6-methylphenyl)-N′-(cis-4-{[4-(dimethylamino)-5,6,7,8-tetrahydroquinazolin-2-yl]amino}cyclohexyl)thiourea], the class under setting [1] is 1 (Class 1: The value of percent of control at 10^−7 M was less than 40% or the value of IC50 was less than 50 nM.).
On to `CN(C)c1cc(N[C@H]2CC[C@@H](NCc3c[nH]nc3-c3ccc(F)cc3)CC2)nc2ccccc12` [compound 1117], for which the class under setting [4] is 3 (Class 3 The value of percent of control at 10^−7 M was more than 60% or the value of IC50 was more than 200 nM.).
For the compound `CN(C)c1nc(N[C@H]2CC[C@@H](CNC(=O)Nc3cccc(Cl)c3Cl)CC2)nc2c1CCCC2` [compound 2486], the class under setting [1] is recorded as 3 (Class 3 The value of percent of control at 10^−7 M was more than 60% or the value of IC50 was more than 200 nM.).
Regarding `CN(C)c1ccnc(N[C@H]2CC[C@@H](CNC(=O)Cc3ccc(Cl)cc3)CC2)n1` [compound 373], the class under setting [1] was 2 (Class 2: The value of percent of control at 10^−7 M was from 40% to 60% or the value of IC′50 was from 50 nM to 200 nM.).
For `Cc1cnc(N[C@H]2CC[C@@H](C(=O)Nc3cccc(Cl)c3)CC2)nc1N(C)C` [compound 2788, cis-N-(3-chlorophenyl)-4-{[4-(dimethylamino)-5-methylpyrimidin-2-yl]amino}cyclohexanecarboxamide], under setting [3], the class is on record as 1 (Class 1: The value of percent of control at 10^−7 M was less than 40% or the value of IC50 was less than 50 nM.).
`CN(C)c1cc(N[C@H]2CC[C@@H](NC(=O)NC(c3ccccc3)c3ccccc3)CC2)nc2ccccc12` [compound 2119, N-(cis-4-{[4-(dimethylamino)quinolin-2-yl]amino}cyclohexyl)-N′-(diphenylmethyl)urea]: the class under setting [1] is recorded as 2 (Class 2: The value of percent of control at 10^−7 M was from 40% to 60% or the value of IC′50 was from 50 nM to 200 nM.).
With `CN(C)c1nc(N[C@H]2CC[C@@H](CNCc3c[nH]nc3-c3ccc(C(F)(F)F)cc3)CC2)nc2c1CCCC2` [compound 1377], the class under setting [1] is 2 (Class 2: The value of percent of control at 10^−7 M was from 40% to 60% or the value of IC′50 was from 50 nM to 200 nM.).
Take `Cc1cnc(NC[C@H]2CC[C@@H](NC(=O)c3ccc4c(c3)OC(F)(F)O4)CC2)nc1N(C)C` [compound 2730]: the class under setting [3] was 3 (Class 3 The value of percent of control at 10^−7 M was more than 60% or the value of IC50 was more than 200 nM.).
On the same count and under the same terms, next, `CCc1cccc(C(=O)N[C@H]2CC[C@@H](Nc3nc(C)c(C)c(N(C)C)n3)CC2)c1` [compound 2855, N-(cis-4-{[4-(dimethylamino)-5,6-dimethylpyrimidin-2-yl]amino}cyclohexyl)-3-ethylbenzamide]: 2 (Class 2: The value of percent of control at 10^−7 M was from 40% to 60% or the value of IC′50 was from 50 nM to 200 nM.).
The same measure, in the same setting: next, `COc1ccc(C(=O)N[C@H]2CC[C@@H](Nc3ncc(C)c(N(C)C)n3)CC2)cc1` [compound 2913]: 3 (Class 3 The value of percent of control at 10^−7 M was more than 60% or the value of IC50 was more than 200 nM.).
With `COc1cc(COC(=O)N[C@H]2CC[C@@H](Nc3nc4c(c(N(C)C)n3)CCCC4)CC2)c([N+](=O)[O-])cc1OC` [compound 555], the class (class 1-3 by percent of control at 10^-7 M or IC50) was 3 (Class 3 The value of percent of control at 10^−7 M was more than 60% or the value of IC50 was more than 200 nM.).
As for `CN(C)c1nc(N[C@H]2CC[C@@H](NC(=S)Nc3ccc(N4CCOCC4)nc3)CC2)nc2c1CCCC2` [compound 2087], the class under setting [1] is on record as 3 (Class 3 The value of percent of control at 10^−7 M was more than 60% or the value of IC50 was more than 200 nM.).
With `CN(C)c1ccnc(N[C@H]2CC[C@@H](NC(=O)c3csc([N+](=O)[O-])c3)CC2)n1` [compound 906, N-(cis-4-{[4-(dimethylamino)pyrimidin-2-yl]amino}cyclohexyl)-5-nitrothiophene-3-carboxamide], the class under setting [1] is listed as 1 (Class 1: The value of percent of control at 10^−7 M was less than 40% or the value of IC50 was less than 50 nM.).
On to `CN(C)c1nc(N[C@H]2CC[C@@H](NC(=O)NC3c4ccccc4-c4ccccc43)CC2)nc2c1CCCC2` [compound 1905], for which the class under setting [2] is 3 (Class 3 The value of percent of control at 10^−7 M was more than 60% or the value of IC50 was more than 200 nM.).
As for `CN(C)c1cc(N[C@H]2CC[C@@H](CNC(=O)/C=C/c3ccccc3Cl)CC2)nc2ccccc12` [compound 234, (2E)-3-(2-chlorophenyl)-N-[(cis-4-{[4-(dimethylamino)quinolin-2-yl]amino}cyclohexyl)methyl]acrylamide], the class under setting [1] is on record as 2 (Class 2: The value of percent of control at 10^−7 M was from 40% to 60% or the value of IC′50 was from 50 nM to 200 nM.).
In the case of `CN(C)c1ccnc(N[C@H]2CC[C@@H](CNC(=O)c3ccc([N+](=O)[O-])s3)CC2)n1` [compound 939], the class under setting [1] is 3 (Class 3 The value of percent of control at 10^−7 M was more than 60% or the value of IC50 was more than 200 nM.).
Consider `CN(C)c1cc(N[C@H]2CC[C@@H](CNC(=O)Oc3ccccc3)CC2)nc2ccccc12` [compound 1572], for which the class (activity class 1-3: percent of control at 10^-7 M or IC50) is 3 (Class 3 The value of percent of control at 10^−7 M was more than 60% or the value of IC50 was more than 200 nM.).
Turning to `CN(C)c1ccnc(N[C@H]2CC[C@@H](NC(=O)Nc3ccc(Oc4ccccc4)cc3)CC2)n1` [compound 2222], under setting [1], the class is 3 (Class 3 The value of percent of control at 10^−7 M was more than 60% or the value of IC50 was more than 200 nM.).
Turning to `CN(C)c1ccnc(N[C@H]2CC[C@@H](CNC(=O)Nc3ccc(F)cc3F)CC2)n1` [compound 2407, N-(2,4-difluorophenyl)-N′-[(cis-4-{[4-(dimethylamino)pyrimidin-2-yl]amino}cyclohexyl)methyl]urea], under setting [5], the class is reported as 2 (Class 2: The value of percent of control at 10^−7 M was from 40% to 60% or the value of IC′50 was from 50 nM to 200 nM.).
On to `CN(C)c1ccnc(N[C@H]2CC[C@@H](NC(=O)c3cccc(C(=O)c4ccccc4)c3)CC2)n1` [compound 873], for which, under setting [1], the class was 2 (Class 2: The value of percent of control at 10^−7 M was from 40% to 60% or the value of IC′50 was from 50 nM to 200 nM.).
With `Cc1cc(C)c(NC(=O)NC[C@H]2CC[C@@H](Nc3nccc(N(C)C)n3)CC2)c(C)c1` [compound 2413, N-[(cis-4-{[4-(dimethylamino)pyrimidin-2-yl]amino}cyclohexyl)methyl]-N′-mesitylurea], the class under setting [5] is reported as 1 (Class 1: The value of percent of control at 10^−7 M was less than 40% or the value of IC50 was less than 50 nM.).
For `CCOc1cc(OCC)cc(C(=O)N[C@H]2CC[C@@H](Nc3nc(C)cc(N(C)C)n3)CC2)c1` [compound 2975, N-(cis-4-{[4-(dimethylamino)-6-methylpyrimidin-2-yl]amino}cyclohexyl)-3,5-diethoxybenzamide], the class under setting [3] was 1 (Class 1: The value of percent of control at 10^−7 M was less than 40% or the value of IC50 was less than 50 nM.).
`Cc1cccc(NC(=O)N[C@H]2CC[C@@H](Nc3nc4c(c(N(C)C)n3)CCCC4)CC2)c1` [compound 1840]: the class under setting [1] is 3 (Class 3 The value of percent of control at 10^−7 M was more than 60% or the value of IC50 was more than 200 nM.).
`Cc1cnc(N[C@H]2CC[C@@H](NC(=O)C[S+]([O-])c3ccccc3C(F)(F)F)CC2)nc1N(C)C` (relative stereo) [compound 2880]: the class under setting [3] was 1 (Class 1: The value of percent of control at 10^−7 M was less than 40% or the value of IC50 was less than 50 nM.).
For `CC(C)c1ccccc1NC(=S)N[C@H]1CC[C@@H](Nc2nccc(N(C)C)n2)CC1` [compound 2326], under setting [5], the class is 3 (Class 3 The value of percent of control at 10^−7 M was more than 60% or the value of IC50 was more than 200 nM.).
Take `COc1ccc(CN[C@H]2CC[C@@H](Nc3cc(N(C)C)c4ccccc4n3)CC2)c(OC)c1OC` [compound 1095]: the class under setting [4] is recorded as 3 (Class 3 The value of percent of control at 10^−7 M was more than 60% or the value of IC50 was more than 200 nM.).
With `COc1ccccc1CNC(=S)N[C@H]1CC[C@@H](Nc2nc3c(c(N(C)C)n2)CCCC3)CC1` [compound 2062], the class under setting [2] was 3 (Class 3 The value of percent of control at 10^−7 M was more than 60% or the value of IC50 was more than 200 nM.).
The same measure, in the same setting: for `Cc1cc(C(=O)N[C@H]2CC[C@@H](Nc3cc(N(C)C)c4ccccc4n3)CC2)c(C)o1` [compound 71, N-(cis-4-{[4-(dimethylamino)quinolin-2-yl]amino}cyclohexyl)-2,5-dimethyl-3-furamide] the value was 1 (Class 1: The value of percent of control at 10^−7 M was less than 40% or the value of IC50 was less than 50 nM.).
Take `CN(C)c1cc(N[C@H]2CC[C@@H](NC(=O)Nc3ccccc3C(F)(F)F)CC2)nc2ccccc12` [compound 2096]: the class under setting [1] is recorded as 3 (Class 3 The value of percent of control at 10^−7 M was more than 60% or the value of IC50 was more than 200 nM.).
